Source: patent US3956333A, “1(Or 3)-perfluoroalkyl-3,4-dihydro-2(1H)-isoquinolinecarbonitriles” (Sterling Drug Inc., priority 1975, dated 1976)
Converted amounts (≈) assume the structure as drawn.

Tests used:
[1] = test system: Platelet aggregation induced by ADP; details: Oryctolagus cuniculus, read-out: % Inhibition of platelet aggregation induced by ADP
[2] = test system: Platelet aggregation induced by collagen; details: Oryctolagus cuniculus, read-out: % Inhibition of platelet aggregation induced by collagen
[3] = test system: platelet aggregate (thrombus); test: In vivo inhibition of platelet aggregation, modified extracorporeal shunt technique (thrombus deposit weight); set-up: species or system New Zealand rabbits; details: single dose, 3 hours after medication; for % Inhibition of platelet aggregation (in vivo): P < 0.0005; for x Deposit Weight ± s.d.: mean
Excerpt: The antithrombotic or platelet aggregation inhibitory effect of the compounds of formulas I and II was further determined by a modified extracorporeal shunt technique in rabbits. Rowntree and Shinoya [J. Exp. Med. 46, 7 (1927)] described a method of extracorporeal circulation for the observation of thrombus formation. Downie et al. [Circulation Res. 12, 441 (1963)] modified this technique in order to study the effects of various chemicals upon the platelet aggregates formed in such a system. The following procedure, a further modification of said technique, was used to determine the antithrombotic activity of the compounds of the invention.
New Zealand rabbits weighing 1.5 to 3.0 kg. each were used for these studies. All animals were dosed orally by stomach tube with the test compound at a given time, e.g., 3, 8, 12, 24, etc. hours, prior to testing the blood samples. Control animals (from 3 to 5 in number for each dose level of compound) were given the vehicle used for solubilizing the compounds tested. All animals were anesthetized with sodium pentobarbital (Pentobrocanal) intravenously, 25-32 mg./kg., and secured to a dissecting board. The right femoral artery was cannulated and connected to a Statham pressure transducer (P 23AC) for continuously measuring arterial blood pressure which was recorded by means of a Grass (Model 7) polygraph.
A longitudinal incision was made in the midcervical region. The jugular vein and the carotid artery on one side were isolated and cannulated with appropriate size catheters filled with saline solution, which were in turn connected via Y-shaped polypropylene connectors establishing the shunt.
The components of the shunt were thoroughly siliconized except for the Y-connector on the arterial side. This connector is weighed prior to running the experiment. A blood sample was withdrawn from the femoral artery to provide a control platelet count. The animal was allowed 10-12 minutes to attain a relatively stable blood pressure level after which the shunt was opened and the blood permitted to flow. The time from the first appearance of blood, in the arterial catheter until its re-entry into the body, via the venous catheter, was measured and recorded, as flow time, which was used to determine the initial rate of flow.
The shunt remained open for a period of twenty minutes. One minute before the end, the femoral catheter was removed from the transducer and a second blood sample was taken. Duplicate platelet counts were made for each sample of blood. The shunt was removed from the animal by pulling out both catheters, arterial and venous, arterial first. The Y-connectors were washed with 10 cc. of saline solution. The arterial Y-connector was separated and dried in an oven overnight at 40°C., then reweighed. The initial weight of the connector was subtracted from the final weight, and the difference is considered to be the mass of the platelet aggregate (thrombus).
(single dose medication), the blood samples having been tested three hours after medication: […]

Staphylococcus aureus = test: Antibacterial activity, standard serial dilution technique (MIC); format: cell-based; details: read-out: minimal (bacteriostatic) inhibitory concentration (MIC)
Excerpt: The antibacterial activities for the compounds of formulas I and II and the compound of formula V where R is pentafluoroethyl were established using standard serial dilution techniques as described by Goss and Cimijotti, Applied Microbiology 16, 1414 (1968).

NC(=NO)N1Cc2ccccc2CC1C(F)(F)F (stereo not shown) [Example 3E]
inhibition at 3000 µM [1]: 64.4%
inhibition at 300 µM [2]: 67.4%

NC(=NO)N1CCc2ccccc2C1C(F)(F)C(F)(F)C(F)(F)F (stereo not shown) [Example 2E]
inhibition at 1000 µM [1]: 8.3%
inhibition at 1000 µM [2]: 94.2%

Cl.NC(=NO)N1CCc2ccccc2C1C(F)(F)C(F)(F)F (stereo not shown) [Example 1E]
% Inhibition of platelet aggregation (in vivo) ([3]; 10 mg/kg oral): 17%
x Deposit Weight ± s.d. ([3]; 10 mg/kg oral): 1.54 ± 0.09
% Inhibition of platelet aggregation (in vivo) ([3]; 25 mg/kg oral): 38%
x Deposit Weight ± s.d. ([3]; 25 mg/kg oral): 1.16 ± 0.05
% Inhibition of platelet aggregation (in vivo) ([3]; 50 mg/kg oral): 41%
x Deposit Weight ± s.d. ([3]; 50 mg/kg oral): 1.08 ± 0.08
inhibition at 3000 µM [1]: 74.2%
inhibition at 100 µM [2]: 24.3%

FC(F)(F)C(F)(F)C1NCCc2ccccc21 (stereo not shown) [1,2,3,4-tetrahydro-1-(pentafluoroethyl)isoquinoline]
MIC (Staphylococcus aureus): ~500 µg/mL (≈ 1990 µM)
